Results: patent US20070128217A1 (priority 2003, published 2007)

Tests used:
[1] = system: antibodies in sera from SARS patients (sera 1a, 1b, 2, 6, 37, 62, London, SARS-yellow, SARS-green); format: binding, human; set-up: Binding of serum 6 to linear peptides of protein X1 of SARS-CoV Urbani / Binding of serum 37 to linear peptides of protein X1 of SARS-CoV Urbani / Binding of serum 6 to looped/cyclic peptide (PEPSCAN-ELISA) / Binding of serum 37 to looped/cyclic peptide (PEPSCAN-ELISA) / Binding of serum 37 to looped/cyclic peptides of protein X1 of SARS-CoV Urbani / Binding of serum 6 to linear peptides of protein X2 / Binding of serum 37 to linear peptides of protein X2 / Binding of serum 37 to looped/cyclic peptides of protein X2 of SARS-CoV Urbani / Binding of serum 6 to linear peptides of protein M of SARS-CoV Urbani / Binding of serum 37 to linear peptides of protein M of SARS-CoV Urbani / Binding of serum 6 to looped/cyclic peptides of protein M of SARS-CoV Urbani / Binding of serum 37 to looped/cyclic peptides of protein M of SARS-CoV Urbani / Binding of serum 6 to linear peptides of protein X3 of SARS-CoV Urbani / Binding of serum 37 to linear peptides of protein X3 of SARS-CoV Urbani / Binding of serum 37 to looped/cyclic peptides of protein X3 of SARS-CoV Urbani / Binding of serum 6 to linear peptides of protein X4 of SARS-CoV Urbani / Binding of serum 37 to linear peptides of protein X4 of SARS-CoV Urbani / Binding of serum 37 to looped/cyclic peptides of protein X4 of SARS-CoV Urbani / Binding of serum 6 to linear peptides of protein X5 of SARS-CoV Urbani / Binding of serum 37 to linear peptides of protein X5 of SARS-CoV Urbani / Binding of serum 37 to looped/cyclic peptides of protein X5 of SARS-CoV Urbani / Binding of serum 6 to linear peptides of protein N of SARS-CoV Urbani / Binding of serum 37 to linear peptides of protein N of SARS-CoV Urbani / Binding of serum 6 to linear peptide (PEPSCAN-ELISA) / Binding of serum 1a to looped/cyclic peptides of protein N of SARS-CoV Urbani / Binding of serum 1b to looped/cyclic peptides of protein N of SARS-CoV Urbani / Binding of serum 2 to looped/cyclic peptides of protein N of SARS-CoV Urbani / Binding of serum 6 to looped/cyclic peptides of protein N of SARS-CoV Urbani / Binding of serum 37 to looped/cyclic peptides of protein N of SARS-CoV Urbani / Binding of serum 62 to looped/cyclic peptides of protein N of SARS-CoV Urbani / Binding of serum London to looped/cyclic peptides of protein N of SARS-CoV Urbani / Binding of serum SARS-green to looped/cyclic peptides of protein N of SARS-CoV Urbani: unit not given here
[2] = system: recombinant human anti-SARS-CoV antibody 03-018; format: binding; set-up: Binding of antibody 03-018 to linear peptides of the N protein of SARS-CoV Urbani / Binding of antibody 03-018 to looped/cyclic peptides of the N protein of SARS-CoV Urbani: unit not given here
[3] = system: control sera (pooled serum of ten healthy LUMC hospital workers; commercial negative donor pooled serum from the Dutch bloodbank); format: binding, human; set-up: Binding of Control serum LUMC to linear peptides / Binding of Control serum Blood-bank to linear peptides / Binding of Control serum LUMC to looped peptides / Binding of Control Serum Blood-Bank to Looped peptides / Binding of Control serum LUMC to linear peptides of the protein M of SARS-CoV Urbani / Binding of Control serum Blood-bank to linear peptides of the protein M of SARS-CoV Urbani / Binding of Control serum LUMC to looped peptides of the protein M of SARS-CoV Urbani / Binding of Control Serum Blood-Bank to Looped peptides of the protein M of SARS-CoV Urbani: unit not given here
[4] = system: rabbit serum obtained by immunizing a rabbit with the SARS-CoV strain Frankfurt 1; format: binding; set-up: Binding of a rabbit serum to linear peptides / Binding of a rabbit serum to looped peptides / Rabbit serum linear peptides / Rabbit serum looped peptides / Binding of a rabbit serum to linear peptides of protein N of SARS-CoV Urbani (Rabbit serum linear peptides) / Binding of a rabbit serum to looped/cyclic peptides of protein N of SARS-CoV Urbani (Rabbit serum looped peptides): unit not given here

Row | Sequence | Binding of serum 1a to looped/cyclic peptides of protein N of SARS-CoV Urbani [1] | Binding of serum 1b to looped/cyclic peptides of protein N of SARS-CoV Urbani [1] | Binding of serum 2 to looped/cyclic peptides of protein N of SARS-CoV Urbani [1] | Binding of serum 6 to looped/cyclic peptides of protein N of SARS-CoV Urbani [1] | Binding of serum 37 to looped/cyclic peptides of protein N of SARS-CoV Urbani [1] | Binding of serum 62 to looped/cyclic peptides of protein N of SARS-CoV Urbani [1] | Binding of serum London to looped/cyclic peptides of protein N of SARS-CoV Urbani [1] | Binding of serum SARS-green to looped/cyclic peptides of protein N of SARS-CoV Urbani [1] | Binding of serum SARS-yellow to looped/cyclic peptides of protein N of SARS-CoV Urbani [1] | Binding of antibody 03-018 to linear peptides of the N protein of SARS-CoV Urbani [2] | Binding of antibody 03-018 to looped/cyclic peptides of the N protein of SARS-CoV Urbani [2] | Binding of Control Serum Blood-Bank to Looped peptides [3] | Binding of Control serum Blood-bank to linear peptides [3] | Binding of Control serum LUMC to linear peptides [3] | Binding of Control serum LUMC to looped peptides [3] | Binding of a rabbit serum to linear peptides of protein N of SARS-CoV Urbani (Rabbit serum linear peptides) [4] | Binding of a rabbit serum to looped/cyclic peptides of protein N of SARS-CoV Urbani (Rabbit serum looped peptides) [4] | also measured
1 | GLPNNTASWFTALTQ | 0.4 | 0.2 | 0.4 | 0.3 | 0.7 | 0.7 | 0.4 | 0.6 | 0.5 | 0.1 | 0.3 | 0.8 | 0.7 | 0.6 | 0.7 | 0.1 | 0.4 | Binding of serum 1a to linear peptides of protein N of SARS-CoV Urbani [1]: 0.2; Binding of serum 1b to linear peptides of protein N of SARS-CoV Urbani [1]: 0.1; Binding of serum 2 to linear peptides of protein N of SARS-CoV Urbani [1]: 0.2; Binding of serum 6 to linear peptides of protein N of SARS-CoV Urbani [1]: 0.1; Binding of serum 37 to linear peptides of protein N of SARS-CoV Urbani [1]: 0.7; Binding of serum 62 to linear peptides of protein N of SARS-CoV Urbani [1]: 0.6; Binding of serum London to linear peptides of protein N of SARS-CoV Urbani [1]: 0.4; Binding of serum SARS-green to linear peptides of protein N of SARS-CoV Urbani [1]: 0.4; Binding of serum SARS-yellow to linear peptides of protein N of SARS-CoV Urbani [1]: 0.4
2 | GNSRNSTPGSSRGNS | 0.6 | 0.5 | 0.4 | 0.4 | 0.5 | 0.5 | 0.3 | 0.1 | 0.5 | 0.1 | 0.2 | 0.6 | 0.8 | 0.7 | 0.7 | 0.2 | 0.8 | Binding of serum 1a to linear peptide (PEPSCAN-ELISA) [1]: 0.7; Binding of serum 1b to linear peptide (PEPSCAN-ELISA) [1]: 0.5; Binding of serum 2 to linear peptide (PEPSCAN-ELISA) [1]: 0.2; Binding of serum 6 to linear peptide (PEPSCAN-ELISA) [1]: 0.2; Binding of serum 37 to linear peptide (PEPSCAN-ELISA) [1]: 0.7; Binding of serum 62 to linear peptide (PEPSCAN-ELISA) [1]: 0.7; Binding of serum London to linear peptide (PEPSCAN-ELISA) [1]: 0.5; Binding of serum SARS-green to linear peptide (PEPSCAN-ELISA) [1]: 0.2; Binding of serum SARS-yellow to linear peptide (PEPSCAN-ELISA) [1]: 0.7
3 | GPEQTQGNFGDQDLI | 0.4 | 0.4 | 0.4 | 0.2 | 0.6 | 0.4 | 0.3 | 0.9 | 0.6 | 0.1 | 0.2 | 0.5 | 0.8 | 0.8 | 0.6 | 0.2 | 0.3 | Recognition of the peptide by sera of SARS-CoV infected individuals, and form (linear, looped/cyclic) in which it is recognized [1]: recognized in linear form
